The text below walks through data of patent US11530216B2, “Deuterated colony stimulating factor-1 receptor (CSF-1R) inhibitors” (Genzyme Corporation, priority 2020, dated 2022).

The nature of data set [1]: Caco-2 permeability assay. It is filed as in vitro ADME. Particulars: human; for Papp at 90 min, 20 μM: apical pH 6.5, 90 min. The protocol:
Caco-2 permeability and efflux assays were performed in cell-based permeability model using Caco-2/TC7 cells. For permeability assays, Caco-2/TC7 cells were seeded on to Millipore Millicell 96 and for efflux assays, 24-well plates were used. The plates with cells were ready to use between 21-25 days of culturing. Both permeability and efflux assays were performed using the TECAN automated liquid handling platform. For permeability assays, test compounds were prepared at 20 μM test concentrations in permeability assay buffer (10 mM HEPES in HBSS buffer, pH 6.5) containing 0.5% BSA. Basolateral permeability buffer (pH 7.4) contains 5% BSA. For efflux assays, test compounds were prepared at 1 μM test concentrations in permeability assay buffer (10 mM HEPES in HBSS buffer, pH 7.4) containing 0.5% BSA. For efflux assays, the basolateral permeability buffer (pH 7.4) contained 0.5% BSA. The permeability assay was initiated by adding 20 μM test solution to apical side of plate containing Caco-2/TC7 cells. In the efflux assay, 1 μM test compound was added to an apical compartment for apical to basolateral (A to B) permeability determination. For basolateral to apical (B to A) permeability determination, the test compound was added to the basolateral side. The plate was incubated for 90 min under constant shaking at 37° C. At the end of the incubation period, samples taken were analyzed using high pressure liquid chromatography with tandem mass spectrometry. For each assay, apparent permeability (Papp) and recovery was calculated from mass spectrometry data. For permeability assay, Papp values are reported as numbers×10^−07 cm/s. For efflux assays, the efflux ratio is calculated using Papp (basolateral to apical) to Papp (apical to basolateral), in addition to recovery values.
(Caco-2 cells form a polarised layer with tight junctions and transporters.)

The test system of data set [2] is C57BL/6 EAE model. Put plainly: MOG-induced EAE model. The note with it: 15 mg/kg p.o. BID for 7 days; for mean disease scores: female C57BL/6J mice. The class given is in vivo, mouse. As to the method:
Experimental autoimmune encephalomyelitis (EAE) is primarily used as a non-clinical model of autoimmune inflammatory diseases of the CNS, and resembles many aspects of human multiple sclerosis. The myelin oligodendrocyte glycoprotein (MOG)-induced EAE model is ideal for exploring this immune-mediated mechanism of neuroinflammation and demyelination.
Test articles: • MOG35-55 peptide (New England Peptides, lot #BU01787)—250 μg/mouse in 4 mg/mL complete Freund's adjuvant (CFA; Chondrex Inc, Cat #7009, lot #190446) Bordetella pertussis toxin (PTX, Sigma, cat #P7208-5OUG, lot #MKCL 1350)—280 ng/mouse in 200 μL PBS • CSF-1R inhibitors—15 mg/kg • Vehicle—0.5% methylcellulose/0.2% Tween-80 Delivery: • MOG peptide & CFA: subcutaneous injection to 2 sites in the hind flank (100 μL/site). • Bordetella pertussis toxin: i.v. injection of 280 ng/mouse in 200 μL PBS on Day 0 and 2. • CSF1R inhibitor: oral gavage every 12 hours • Vehicle: oral gavage every 12 hours Time points: • Day 0—Administer MOG peptide in CFA and PTX to Groups 1-3 • Day 2—Administer PTX by i.v. to Groups 1-3 • Day 9—Begin daily scoring of mice • Day 11-14—Randomize mice to groups when reach score of 1 and begin treatment • Day ˜18-21—After 7 days of treatment, perfuse mice and euthanize animals.
Mice were clinically assessed daily for signs of paralytic disease and weighed intermittently to document weight loss. At study termination, ½ brain was fixed for histology and brain/liver/plasma were collected for exposure. Spinal cord and whole blood was collected for flow cytometry. Additional plasma aliquots were saved for follow up analysis.
Female C57BL/6J mice were immunized with an emulsion of MOG35-55 peptide (250 μg/mouse) in complete Freund's adjuvant (CFA). […] Following EAE induction, the mice were monitored daily for paralytic symptoms and scored for their clinical presentation using a progressive scoring system (Score 0: no disease; Score 1: flaccid tail; Score 2: hindlimb weakness; Score 3: hindlimb paralysis; Score 4: Front limb weakness or partial paralysis; Score 5: death). […]

Data set [3] is described as follows: Human liver cytosol intrinsic clearance. It is filed as in vitro ADME. The note with it: human, cytosol. The protocol:
Incubations were performed in 1 mg/mL human liver cytosol with high aldehyde oxidase (AO)/xanthine oxidase (XO) activity or 2.5 mg/mL human liver S-9 fraction with high AO/XO activity at 1 μM concentration of test compound in duplicate, and the concentration-time course of test compound depletion was determined after withdrawing samples from the incubation at assay time points followed by liquid chromatography with tandem mass spectrometry analysis. An organic solvent was used to terminate incubations.
These available known AO substrates along with the test compounds were analyzed using three in vitro systems (pooled human liver cytosol, liver S-9 fractions and human hepatocytes isolated from livers perfused with HTK media). Scaled unbound intrinsic clearances were calculated for the test compounds/new chemical entities and were compared to the in vivo unbound intrinsic clearances of the known AO substrates.

Data set [4] can be described thus: Mouse hepatocyte intrinsic clearance. Particulars: 1 μM, 0.5 million cells/mL. The class given is in vitro ADME. The protocol:
Incubations were performed in 0.5 million hepatocytes cells/mL at 1 μM concentration of test compound in duplicate with rat, human, dog, monkey, or mouse hepatocytes, and the concentration-time course of test compound depletion was determined after withdrawing samples from the incubation at assay time points followed by liquid chromatography with tandem mass spectrometry analysis. An organic solvent was used to terminate incubations.

[5] abbreviates: Human Liver Cytosol Intrinsic Clearance _1.
[6] abbreviates: Human Liver Cytosol Intrinsic Clearance _2.

By Papp is commonly meant a coefficient for how fast a substance crosses the barrier. By CLint scaled is commonly meant the rate of metabolic loss divided by the concentration. A high value points to rapid turnover. By microsomal CLint is commonly meant the rate of metabolic loss divided by the concentration. Low readings indicate slow turnover, high ones rapid turnover.

With `[2H]c1nc2cccnc2n1Cc1cc(OC)c2c(c1)O[C@@H](C)[C@H](c1ccc(OC)nc1)O2` [Compound 6, 3-(((2S,3S)-8-methoxy-2-(6-methoxypyridin-3-yl)-3-methyl-2,3-dihydrobenzo[b][1,4]dioxin-6-yl)methyl)-3H-imidazo[4,5-b]pyridine-2-d], in data set [1], the recovery at 90 min, 20 μM was found to be 73% and the Papp at 90 min, 20 μM is 377 nm/s. Moreover, the paralytic symptoms result in data set [2] (compared with Compound 24) is recorded as “ameliorated paralytic symptoms to a surprisingly greater extent than nondeuterated Compound 24”. Besides, the mean disease scores result in data set [2] was “significantly mean disease scores”. Also, the CLint scaled at 1 μM in data set [3] turned out to be 0.234 L/h/kg. The microsomal CLint at 1 μM in data set [3] (setting [5]) came out at 1.5 µL/min/mg. The molecule further gave a microsomal CLint at 1 μM in data set [3] (setting [6]) of 2.2 µL/min/mg. In data set [4], the “Mouse Hepatocyte Intrinsic Clearance” value is 6.63 μL/min/10^7 cells.
In data set [1], `COc1ccc(C2Oc3c(OC)cc(Cn4cnc5cccnc54)cc3O[C@H]2C)cn1` (stereo partly drawn) [Compound 24] registered a recovery at 90 min, 20 μM of 80% and a Papp at 90 min, 20 μM of 377 nm/s. Further, the mean disease scores entry in data set [2] was “significantly mean disease scores”. Besides, the CLint scaled at 1 μM in data set [3] was found to be 0.63 L/h/kg. In data set [3] (setting [5]), this molecule came in with a microsomal CLint at 1 μM of 5.1 µL/min/mg. Besides, in data set [3] (setting [6]), the microsomal CLint at 1 μM was 5 µL/min/mg. The “Mouse Hepatocyte Intrinsic Clearance” value in data set [4] amounted to 9.36 μL/min/10^7 cells.
